Test [1] deals with GluN1/GluN2D (Rattus norvegicus, UniProt Q62645). The test is described as follows: Whole-cell voltage-clamp recordings, HEK cells, GluN1/GluN2D (agonist dependence). The format is cell-based. An excerpt:
(§1) We previously described the actions of the GluN2C/GluN2D-preferring negative allosteric modulator DQP-1105 as dependent on glutamate (but not glycine) binding, in that DQP-1105 affinity increases after GluN1/GluN2D NMDARs bind glutamate.[32] […] The concentration-dependent relaxation is indicative of an agonist-induced increase in potency that leads to re-equilibration of the inhibitor after agonist binding induces an increase in inhibitor affinity. We investigated the glutamate dependence of compound 2i (GluN1/GluN2D, Figure 4; GluN1/GluN2C, Figure S2), DQP-1105 (Figure S1), and compound (S)-2a (DQP-69;[33]Figure S3) using the same protocols.
(§2) We preincubated cells with glycine and the inhibitor 2i (DQP-997-74) and compared inhibitor potency during the peak and steady-state current responses to glutamate application. […] To investigate the time course of 2i inhibition, we fitted the relaxation of the current response with a single exponential function. If the current response time course reflects 2i binding, then the reciprocal of τinhibition should be linearly related to its concentration, with the slope equal to kON and intercept equal to kOFF. […] The deactivation of GluN1/GluN2D receptors (5.3 ± 0.2 s) was slowed by the presence of compound 2i when applied at concentrations of 0.1 μM (7.3 ± 0.3 s; p = 0.017) and 0.3 μM (10.5 ± 1.0 s; p = 0.002) but not at 0.03 μM (5.6 ± 0.3 s; p = 0.518; Figure 4E). […] This phenomenon was previously discovered for QNZ-46, a glutamate-dependent GluN2C/2D-selective inhibitor with a different structural core.[42] As proposed in that study, the prolonged deactivation may indicate that 2i slows a conformational change necessary for glutamate unbinding or 2i may need to unbind before glutamate can unbind.
(§3) In addition, we evaluated how glutamate dependence affects inhibition of responses to brief agonist applications similar to phasic glutamate release that occurs at synapses. To do so, we preincubated cells expressing GluN1/GluN2D receptors with the inhibitor 2i and then applied trains of five brief pulses of NMDA (which dissociates more rapidly than glutamate) and glycine from a pressurized micropipette to mimic repetitive synaptic transmission (Figure 4F). We measured the peak amplitude and compared the concentration–response curves for the inhibition of the first and last response (Figure 4G). The initial train of pulses in the absence of drug controls for systematic errors such as internalization of receptors.
(§4) To further evaluate whether 2i followed the law of mass action, we coapplied different concentrations of 2i with glutamate during the steady-state glutamate and glycine responses of GluN1/GluN2D receptors expressed in HEK cells (Figure 4H). […] We also fitted the onset and offset time course of the inhibition produced by compound 2i with a single exponential function (Figure 4J).
(§5) HEK293 cells (HEK, ATCC CRL-1573) were plated on glass coverslips pretreated with 0.1 mg/mL poly-D-lysine and cultured in Dulbecco’s modified Eagle medium (DMEM) plus Glutamax (GIBCO 10569-10) supplemented with 10% fetal bovine serum, 10 U/mL of penicillin, and 10 μg/mL of streptomycin at 37 °C and 5% CO2. The cells were transiently transfected with cDNA encoding rat GluN1, GluN2D, and eGFP at a ratio of 1:1:5 by using the calcium phosphate precipitation method.[48] After 24–48 h following the transfection, the cells were perfused with external recording solution that contained (in mM) 3 KCl, 150 NaCl, 0.01 EDTA, 1.0 CaCl2, 10 HEPES, and 22 D-mannitol (the pH was adjusted to 7.4 with NaOH). The patch electrodes (resistance 3–5 MΩ) were prepared from thin-walled glass micropipettes (TW150F-4, World Precision Instruments, Sarasota, FL) by a dual-stage glass micropipette puller (PC-10, Narishige, Tokyo, Japan) and filled with internal solution containing (in mM) 110 D-gluconate, 110 CsOH, 30 CsCl, 5 HEPES, 4 NaCl, 0.5 CaCl2, 2 MgCl2, 5 BAPTA, 2 NaATP, and 0.3 NaGTP. […]

The target in test [2] is GluN1/GluN2D (Rattus norvegicus, UniProt P35439+Q62645). The description is as above. The test is classed as cell-based. To be noted: for Kd: from kON and kOFF.
Text: as §1, §2, §3, §4, §5

Where [3] appears, read: HEK293, coapplication with glutamate.
Setting [4] is: HEK293, inhibitor preapplied, linear regression of 1/τinhibition vs concentration.

Like-named read-outs stand apart in the source and are kept apart here.

Sequence of GluN1/GluN2D (Rattus norvegicus, UniProt P35439+Q62645) (Q62645 28-1323, other chains not shown): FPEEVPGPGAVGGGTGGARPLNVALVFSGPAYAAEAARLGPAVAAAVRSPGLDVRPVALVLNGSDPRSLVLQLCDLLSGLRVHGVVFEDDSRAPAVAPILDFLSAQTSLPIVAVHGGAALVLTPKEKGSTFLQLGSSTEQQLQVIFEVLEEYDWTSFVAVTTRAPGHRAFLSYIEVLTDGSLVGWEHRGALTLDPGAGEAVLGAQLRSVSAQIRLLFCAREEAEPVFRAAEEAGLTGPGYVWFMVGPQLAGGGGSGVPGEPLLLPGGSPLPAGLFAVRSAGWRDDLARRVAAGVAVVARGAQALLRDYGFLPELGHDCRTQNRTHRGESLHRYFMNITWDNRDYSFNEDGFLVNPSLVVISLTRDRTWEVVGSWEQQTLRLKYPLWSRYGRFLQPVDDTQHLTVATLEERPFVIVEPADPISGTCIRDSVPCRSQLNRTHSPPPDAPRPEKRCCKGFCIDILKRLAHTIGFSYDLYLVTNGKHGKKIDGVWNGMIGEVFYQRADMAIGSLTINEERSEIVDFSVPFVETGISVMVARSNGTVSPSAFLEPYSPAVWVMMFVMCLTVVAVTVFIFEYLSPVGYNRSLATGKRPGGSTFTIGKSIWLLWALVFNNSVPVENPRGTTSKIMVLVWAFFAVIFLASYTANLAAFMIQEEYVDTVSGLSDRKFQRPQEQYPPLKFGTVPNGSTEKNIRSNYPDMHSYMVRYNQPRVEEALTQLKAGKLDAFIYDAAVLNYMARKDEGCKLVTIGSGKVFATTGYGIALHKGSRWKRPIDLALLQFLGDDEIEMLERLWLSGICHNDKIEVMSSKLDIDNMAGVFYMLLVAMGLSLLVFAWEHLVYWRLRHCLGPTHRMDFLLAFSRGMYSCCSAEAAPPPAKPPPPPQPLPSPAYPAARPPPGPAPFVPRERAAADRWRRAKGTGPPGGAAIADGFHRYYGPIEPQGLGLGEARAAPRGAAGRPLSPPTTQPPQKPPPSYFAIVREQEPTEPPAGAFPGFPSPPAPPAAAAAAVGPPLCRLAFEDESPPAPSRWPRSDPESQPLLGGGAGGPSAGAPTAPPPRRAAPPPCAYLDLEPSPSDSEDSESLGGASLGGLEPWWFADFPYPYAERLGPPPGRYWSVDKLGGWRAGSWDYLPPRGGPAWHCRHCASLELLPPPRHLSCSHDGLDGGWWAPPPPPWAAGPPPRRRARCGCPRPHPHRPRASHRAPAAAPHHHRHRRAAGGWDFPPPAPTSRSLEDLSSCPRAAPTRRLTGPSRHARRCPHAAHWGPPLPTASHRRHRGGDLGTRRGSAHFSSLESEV
Sequence of GluN1/GluN2D (Rattus norvegicus, UniProt Q62645) (Q62645 28-1323, other chains not shown): as above

For `O=C(O)CC(F)(F)C(=O)N1N=C(c2c(-c3ccc(Cl)cc3)c3ccccc3[nH]c2=O)CC1c1ccc(Cl)cc1` (stereo not drawn) [2i], the “τdeactivation following glutamate removal” value is reported as 5.6 ± 0.3 s at GluN1/GluN2D [1] (0.03 μM compound, mean ± SEM); 7.3 ± 0.3 s at GluN1/GluN2D [1] (0.1 μM compound, mean ± SEM); 10.5 ± 1.0 s at GluN1/GluN2D [1] (0.3 μM compound, mean ± SEM). In addition, on GluN1/GluN2D [1] (coapplication with glutamate), the Hill slope – broadly, a measure of the steepness of the concentration-response curve – turned out to be 0.93. Further, the “fold-change in IC50 for the peak and steady-state current responses” value on GluN1/GluN2D [1] (mean ± SEM, compared by ANOVA) turned out to be 3.0 ± 0.3. On GluN1/GluN2D [1] (ratio of IC50 values), the “IC50 fold higher during peak compared to steady-state” value stood at 3 fold. Moreover, the “IC50 fold higher at first pulse compared to fifth pulse” value on GluN1/GluN2D [1] (trains of brief agonist applications) worked out at 1.9 fold. The dissociation rate constant (koff) (commonly a measure of how fast the partners let go of each other) on GluN1/GluN2D [2] (setting [3]) was determined as 0.05 s⁻¹; at GluN1/GluN2D [2] (setting [4]) it was 0.17 s⁻¹. In addition, the kon (usually the rate constant with which the complex forms) at GluN1/GluN2D [2] (setting [3]) is 210000 M⁻¹ s⁻¹; on GluN1/GluN2D [2] (setting [4]) it was 400000 M⁻¹ s⁻¹. Also, the dissociation constant (Kd) (as a rule, a measure of binding affinity in units of concentration) on GluN1/GluN2D [2] (coapplication with glutamate) stood at 0.24 µM; on GluN1/GluN2D [2] (inhibitor preapplied), 0.43 µM. Further, the IC50 (commonly the midpoint of a concentration-inhibition curve) on GluN1/GluN2D [2] (compound coapplied with glutamate during steady-state response, read-out: IC50 steady-state inhibition, coapplication) was found to be 0.1 µM; on GluN1/GluN2D [2] (fifth of 5 brief NMDA (500 μM)/glycine (250 μM) pulses at 1 s intervals, read-out: IC50 pulse 5 (95% CI)), 0.4 µM; at GluN1/GluN2D [2] (first of 5 brief NMDA (500 μM)/glycine (250 μM) pulses at 1 s intervals, read-out: IC50 pulse 1 (95% CI)), 0.75 µM; at GluN1/GluN2D [2] (peak current response to glutamate, inhibitor preapplied, read-out: IC50 peak (95% CI)), 0.23 µM; on GluN1/GluN2D [2] (steady-state current response to glutamate, inhibitor preapplied, read-out: IC50 steady-state (95% CI)), 0.08 µM.

The values are drawn from article PMC10485906, “Development of a Dihydroquinoline–Pyrazoline GluN2C/2D-Selective Negative Allosteric Modulator of the N-Methyl-D-aspartate Receptor” (ACS Chemical Neuroscience, 2023).
